Test results reported in ChEMBL document CHEMBL5360608 (ACS Med Chem Lett, 2023).
The source made the active and inactive calls. No cut-off for these calls is given here.

Columns and labels:
[1] = target: T1, Sodium channel protein type 4 subunit alpha (Homo sapiens, UniProt P35499); assay: Inhibition of human Nav 1.4 expressed in HEK293T cells assessed as phasic block at 10 Hz by whole cell patch clamp assay; assay type: cell-based
Homo sapiens [2] = species: Homo sapiens; assay: Selectivity ratio of IC50 for human Nav 1.4 expressed in HEK293T cells assessed as tonic block at 0.1 Hz to IC50 for human Nav 1.4 expressed in HEK293T cells assessed as phasic block at 10 Hz; assay type: cell-based
[3] = target: T1, Sodium channel protein type 4 subunit alpha; assay: Inhibition of human Nav 1.4 expressed in HEK293T cells assessed as tonic block at 0.1 Hz by whole cell patch clamp assay; assay type: cell-based
Mus musculus [4] = assay: Analgesic activity in po dosed mouse assessed as alteration in spontaneous motility at high dose by hot plate test; assay type: functional, organism-based
Mus musculus [5] = assay: Analgesic activity in po dosed mouse assessed as licking latency at 77 uM measured after 15 mins by hot plate test (reference value: 14.5 to 15.7 sec); assay type: functional; conditions: 0.25 h
[6] = target: T2, Sodium channel protein type 9 subunit alpha (Homo sapiens, UniProt Q15858); assay: Inhibition of human Nav 1.7 expressed in HEK293T cells assessed as tonic block at 0.1 Hz by whole cell patch clamp assay; assay type: cell-based
T2 sequence (Q15858 whole entry): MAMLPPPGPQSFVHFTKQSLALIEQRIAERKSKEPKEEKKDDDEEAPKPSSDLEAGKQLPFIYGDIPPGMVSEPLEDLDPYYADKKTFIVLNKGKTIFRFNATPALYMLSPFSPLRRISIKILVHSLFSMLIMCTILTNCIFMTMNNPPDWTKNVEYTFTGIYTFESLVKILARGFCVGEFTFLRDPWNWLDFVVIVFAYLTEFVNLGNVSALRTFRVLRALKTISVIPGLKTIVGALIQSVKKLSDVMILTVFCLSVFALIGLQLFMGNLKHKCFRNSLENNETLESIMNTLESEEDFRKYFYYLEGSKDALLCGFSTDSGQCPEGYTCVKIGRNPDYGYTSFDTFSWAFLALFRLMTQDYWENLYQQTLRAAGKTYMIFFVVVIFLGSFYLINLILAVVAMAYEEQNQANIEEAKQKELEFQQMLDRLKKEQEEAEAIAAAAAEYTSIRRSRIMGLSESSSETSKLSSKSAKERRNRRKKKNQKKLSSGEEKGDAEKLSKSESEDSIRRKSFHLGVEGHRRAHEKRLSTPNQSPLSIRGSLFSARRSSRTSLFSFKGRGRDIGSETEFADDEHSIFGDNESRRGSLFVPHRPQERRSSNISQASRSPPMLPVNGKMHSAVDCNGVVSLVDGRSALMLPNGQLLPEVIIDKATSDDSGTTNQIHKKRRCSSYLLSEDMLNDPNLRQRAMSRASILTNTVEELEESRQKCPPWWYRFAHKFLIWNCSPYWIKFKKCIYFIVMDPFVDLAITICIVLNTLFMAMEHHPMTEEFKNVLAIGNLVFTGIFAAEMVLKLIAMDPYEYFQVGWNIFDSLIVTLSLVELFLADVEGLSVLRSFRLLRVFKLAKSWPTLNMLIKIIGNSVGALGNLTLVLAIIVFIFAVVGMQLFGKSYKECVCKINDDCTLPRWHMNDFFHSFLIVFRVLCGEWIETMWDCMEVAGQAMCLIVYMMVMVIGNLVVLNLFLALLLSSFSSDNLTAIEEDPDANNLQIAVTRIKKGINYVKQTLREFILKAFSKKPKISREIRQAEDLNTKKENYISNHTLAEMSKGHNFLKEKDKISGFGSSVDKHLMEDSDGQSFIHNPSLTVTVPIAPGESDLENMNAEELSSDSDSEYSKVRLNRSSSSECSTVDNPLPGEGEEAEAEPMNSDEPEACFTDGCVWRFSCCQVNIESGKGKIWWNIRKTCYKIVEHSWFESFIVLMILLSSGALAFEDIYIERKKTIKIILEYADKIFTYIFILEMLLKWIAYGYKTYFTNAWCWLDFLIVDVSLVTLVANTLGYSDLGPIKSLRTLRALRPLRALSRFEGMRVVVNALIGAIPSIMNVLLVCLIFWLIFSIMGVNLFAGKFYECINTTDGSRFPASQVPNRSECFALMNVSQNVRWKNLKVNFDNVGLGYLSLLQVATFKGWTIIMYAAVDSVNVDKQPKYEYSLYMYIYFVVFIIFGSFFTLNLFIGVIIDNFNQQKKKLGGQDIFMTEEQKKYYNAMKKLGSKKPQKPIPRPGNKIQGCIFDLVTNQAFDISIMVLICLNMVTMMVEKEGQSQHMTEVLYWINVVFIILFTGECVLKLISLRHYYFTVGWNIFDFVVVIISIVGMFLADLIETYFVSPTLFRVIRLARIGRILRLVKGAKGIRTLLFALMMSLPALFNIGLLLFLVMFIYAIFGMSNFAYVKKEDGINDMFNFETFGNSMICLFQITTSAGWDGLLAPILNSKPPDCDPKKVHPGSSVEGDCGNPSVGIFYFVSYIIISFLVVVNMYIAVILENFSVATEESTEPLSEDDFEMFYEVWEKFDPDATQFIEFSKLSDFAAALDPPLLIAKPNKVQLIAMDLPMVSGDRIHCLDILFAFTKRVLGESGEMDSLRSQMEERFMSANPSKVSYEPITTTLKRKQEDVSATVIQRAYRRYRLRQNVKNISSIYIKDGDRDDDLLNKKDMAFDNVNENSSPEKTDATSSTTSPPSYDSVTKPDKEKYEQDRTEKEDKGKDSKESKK

Mus musculus [7] = assay: Analgesic activity in po dosed mouse assessed as licking latency at 77 uM measured after 60 mins by hot plate test (reference value: 14.5 to 15.7 sec); assay type: functional; conditions: 1 h
Homo sapiens [8] = species: Homo sapiens; assay: Selectivity ratio of IC50 for human Nav 1.7 expressed in HEK293T cells assessed as tonic block at 0.1 Hz to IC50 for human Nav 1.7 expressed in HEK293T cells assessed as phasic block at 10 Hz; assay type: cell-based
Rattus norvegicus [9] = species: Rattus norvegicus; assay: Reduction in 9-anthracene carboxylic acid induced myotonic-like condition in Wistar rat skeletal muscle fiber by measuring electable action potential at upto 10 uM by two intracellular microelectrode current-clamp method; assay type: functional, tissue-based; conditions: Skeletal muscle tissue
[10] = target: T2, Sodium channel protein type 9 subunit alpha; assay: Inhibition of human Nav 1.7 expressed in HEK293T cells assessed as phasic block at 10 Hz by whole cell patch clamp assay; assay type: cell-based
Mus musculus [11] = assay: Analgesic activity in po dosed mouse assessed as licking latency at 77 uM measured after 45 mins by hot plate test (reference value: 14.5 to 15.7 sec); assay type: functional; conditions: 0.75 h
Mus musculus [12] = assay: Analgesic activity in po dosed mouse assessed as licking latency at 77 uM measured after 30 mins by hot plate test (reference value: 14.5 to 15.7 sec); assay type: functional; conditions: 0.5 h
Mus musculus [13] = assay: Analgesic activity in po dosed mouse assessed as alterations in motor coordination at high dose by hot plate test; assay type: functional, organism-based
Rattus norvegicus [14] = species: Rattus norvegicus; assay: Reduction in 9-anthracene carboxylic acid induced myotonic-like condition in Wistar rat skeletal muscle fiber by measuring electable action potential at 0.3 to 10 uM by two intracellular microelectrode current-clamp method; assay type: functional, tissue-based; conditions: Skeletal muscle tissue, dose 0.3-10 µM

T1 sequence (P35499 whole entry): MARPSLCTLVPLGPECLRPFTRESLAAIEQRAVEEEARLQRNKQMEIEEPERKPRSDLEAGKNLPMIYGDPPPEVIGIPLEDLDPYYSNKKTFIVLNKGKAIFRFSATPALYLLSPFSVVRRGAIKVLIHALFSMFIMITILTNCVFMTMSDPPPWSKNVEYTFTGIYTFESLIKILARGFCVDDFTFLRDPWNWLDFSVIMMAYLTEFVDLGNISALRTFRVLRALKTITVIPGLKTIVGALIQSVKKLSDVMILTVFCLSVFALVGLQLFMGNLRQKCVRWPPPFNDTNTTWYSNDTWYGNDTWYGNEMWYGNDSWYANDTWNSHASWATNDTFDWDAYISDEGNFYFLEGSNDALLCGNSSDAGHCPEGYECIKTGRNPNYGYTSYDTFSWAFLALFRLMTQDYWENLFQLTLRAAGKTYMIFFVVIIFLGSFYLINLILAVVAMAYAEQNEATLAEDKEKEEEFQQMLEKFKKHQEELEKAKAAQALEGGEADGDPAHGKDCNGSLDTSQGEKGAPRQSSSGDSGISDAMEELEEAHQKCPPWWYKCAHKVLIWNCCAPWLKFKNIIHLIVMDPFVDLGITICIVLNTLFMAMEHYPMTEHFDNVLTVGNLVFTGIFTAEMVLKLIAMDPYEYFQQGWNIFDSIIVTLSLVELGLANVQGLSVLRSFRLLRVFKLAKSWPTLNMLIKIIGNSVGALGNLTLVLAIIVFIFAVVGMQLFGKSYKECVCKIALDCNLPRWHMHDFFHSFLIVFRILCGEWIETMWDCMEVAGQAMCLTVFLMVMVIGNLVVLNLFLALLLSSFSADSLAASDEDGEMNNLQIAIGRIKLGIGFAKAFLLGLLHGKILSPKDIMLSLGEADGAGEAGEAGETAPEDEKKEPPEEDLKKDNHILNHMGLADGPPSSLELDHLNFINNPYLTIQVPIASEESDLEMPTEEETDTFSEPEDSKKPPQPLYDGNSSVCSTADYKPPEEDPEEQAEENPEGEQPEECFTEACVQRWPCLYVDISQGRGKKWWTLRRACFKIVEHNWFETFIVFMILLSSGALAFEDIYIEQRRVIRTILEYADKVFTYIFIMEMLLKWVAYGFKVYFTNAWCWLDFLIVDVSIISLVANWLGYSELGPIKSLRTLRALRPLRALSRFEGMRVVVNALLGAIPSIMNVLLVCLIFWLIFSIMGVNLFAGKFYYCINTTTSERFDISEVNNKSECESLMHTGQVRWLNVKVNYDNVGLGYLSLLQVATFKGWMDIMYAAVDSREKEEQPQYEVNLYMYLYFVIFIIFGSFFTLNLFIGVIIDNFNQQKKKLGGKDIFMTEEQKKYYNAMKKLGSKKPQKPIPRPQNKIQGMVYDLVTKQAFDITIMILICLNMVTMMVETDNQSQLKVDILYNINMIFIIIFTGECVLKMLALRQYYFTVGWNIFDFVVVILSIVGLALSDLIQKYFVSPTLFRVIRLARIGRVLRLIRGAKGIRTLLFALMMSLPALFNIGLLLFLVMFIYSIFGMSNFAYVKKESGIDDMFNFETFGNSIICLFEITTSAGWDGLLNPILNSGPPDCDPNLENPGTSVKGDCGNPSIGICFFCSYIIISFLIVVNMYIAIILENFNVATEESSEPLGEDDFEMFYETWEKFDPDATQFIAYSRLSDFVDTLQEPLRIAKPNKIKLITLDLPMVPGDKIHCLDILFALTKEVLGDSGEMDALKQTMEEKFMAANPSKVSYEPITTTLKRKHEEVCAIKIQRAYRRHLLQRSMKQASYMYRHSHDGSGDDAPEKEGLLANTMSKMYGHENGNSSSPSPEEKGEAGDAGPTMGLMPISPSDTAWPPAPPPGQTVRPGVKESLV

Row | IC50 [1] [µM] | IC50 [3] [µM] | IC50 [6] [µM] | IC50 [10] [µM] | Structure (SMILES) | Ratio IC50 (Homo sapiens [2]) | Activity (Mus musculus [4]) | Activity (Mus musculus [5]) [s] | Activity (Mus musculus [7]) [s] | Ratio IC50 (Homo sapiens [8]) | Activity (Rattus norvegicus [9]) | Activity (Mus musculus [11]) [s] | Activity (Mus musculus [12]) [s] | Activity (Mus musculus [13]) | Activity (Rattus norvegicus [14])
1 | 89 | 118 |  |  | CC(C)c1ccc2nc(N)sc2c1 | 1.3 |  |  |  |  |  |  |  |  | 
2 | 63 | 250 | 106 | 48 | c1ccc(Oc2ccc3nc(N4CCNCC4)sc3c2)cc1 | 4 | inactive | 21.6 | 19.9 | 2.2 | inactive | 23.1 | 26.2 | inactive | 
3 | 38 | 95 | 52 | 24 | FC(F)(F)Oc1ccc2nc(N3CCNCC3)sc2c1 | 2.5 |  | 16.8 | 15.5 | 2.2 |  | 17.3 | 18.8 |  | 
4 | 51 | 63 |  |  | Nc1nc2ccc(OC(F)(F)F)cc2s1 [RILUZOLE] |  | inactive | 20.5 | 18.3 |  |  | 24.3 | 25.6 | inactive | Active
5 | 53 | 58 |  |  | Nc1nc2ccc(C(F)(F)F)cc2s1 | 1.1 |  |  |  |  |  |  |  |  | 
6 |  |  |  |  | CNCCN(C)c1nc2ccc(OC(F)(F)F)cc2s1 |  |  | 17.8 | 16 |  |  | 16.6 | 18 |  | 
